# Measurements from the NIST ThermoML archive (doi:10.1016/j.jct.2010.01.009).
# Values joined by “and” are separate entries in the source; they are usually repeats but may differ in a detail not shown here. Equal entries are not always repeated. Numbers after ± are expanded uncertainties.
# Settings: Crystal, Calculated from knudsen effusion weight loss
SMILES,vapor or sublimation pressure (283.11 K),vapor or sublimation pressure (285.13 K),vapor or sublimation pressure (287.12 K),vapor or sublimation pressure (289.13 K),vapor or sublimation pressure (291.14 K),vapor or sublimation pressure (293.13 K),vapor or sublimation pressure (295.18 K),vapor or sublimation pressure (297.15 K),vapor or sublimation pressure (299.16 K),vapor or sublimation pressure (271.14 K),vapor or sublimation pressure (273.15 K),vapor or sublimation pressure (275.17 K),vapor or sublimation pressure (277.06 K),vapor or sublimation pressure (279.15 K),vapor or sublimation pressure (281.11 K),vapor or sublimation pressure (283.19 K),vapor or sublimation pressure (285.24 K),vapor or sublimation pressure (287.13 K)
Cc1ccc(-n2cccc2)cc1 [1-(4-methylphenyl)-1H-pyrrole],0.00014 ± 7e-06 kPa and 0.000137 ± 7e-06 kPa,0.000168 ± 8e-06 kPa and 0.000169 ± 8e-06 kPa and 0.000174 ± 9e-06 kPa,0.00023 ± 1.2e-05 kPa and 0.000224 ± 1.1e-05 kPa and 0.00022 ± 1.1e-05 kPa,0.000278 ± 1.4e-05 kPa and 0.000282 ± 1.4e-05 kPa and 0.000286 ± 1.4e-05 kPa,0.000362 ± 1.8e-05 kPa and 0.000355 ± 1.8e-05 kPa,0.000468 ± 2.3e-05 kPa and 0.000459 ± 2.3e-05 kPa and 0.000451 ± 2.3e-05 kPa,0.000579 ± 2.9e-05 kPa and 0.000571 ± 2.9e-05 kPa and 0.000558 ± 2.8e-05 kPa,0.000732 ± 3.7e-05 kPa and 0.000734 ± 3.7e-05 kPa,0.000948 ± 4.7e-05 kPa and 0.000927 ± 4.6e-05 kPa and 0.000925 ± 4.6e-05 kPa,,,,,,,,,
c1ccc(-n2cccc2)cc1 [1-phenylpyrrole],,,,,,,,,,0.000151 ± 8e-06 kPa and 0.000147 ± 7e-06 kPa and 0.000143 ± 7e-06 kPa,0.000191 ± 1e-05 kPa and 0.00019 ± 1e-05 kPa and 0.000185 ± 9e-06 kPa,0.000255 ± 1.3e-05 kPa and 0.000247 ± 1.2e-05 kPa and 0.000241 ± 1.2e-05 kPa,0.000336 ± 1.7e-05 kPa and 0.000311 ± 1.6e-05 kPa and 0.00033 ± 1.7e-05 kPa,0.000426 ± 2.1e-05 kPa and 0.000414 ± 2.1e-05 kPa and 0.000397 ± 2e-05 kPa,0.000537 ± 2.7e-05 kPa and 0.000525 ± 2.6e-05 kPa,0.000682 ± 3.4e-05 kPa and 0.000678 ± 3.4e-05 kPa and 0.000651 ± 3.3e-05 kPa,0.000905 ± 4.5e-05 kPa and 0.000887 ± 4.4e-05 kPa,0.001123 ± 0.00012 kPa and 0.001111 ± 0.00011 kPa and 0.00106 ± 0.00011 kPa
